Measurements reported in patent US8012984B2, “Substituted pyrazinone melanin concentrating hormone receptor-1 antagonists and methods” (Bristol-Myers Squibb Company, priority 2007, dated 2011).

What was measured:
MCHR1 = target: T1, MCHR1 (Rattus norvegicus, UniProt P97639); test: Assessment of in vivo MCHR1 activity (body weight and food consumption in rats with choice of diets); set-up: species or system Sprague Dawley rats
T1 construct: from tissue; host or cells: whole animal: male Sprague Dawley rats
Experimental: Male Sprague Dawley (CD, Charles River Breeding Laboratory) rats weighing approximately 240 grams were placed in individual plastic cages with AlphaDri bedding. The room was maintained at 72° F. and 50% humidity, and a 12/12 light dark cycle with lights out at 1600 hours. The rats were conditioned for 5 days prior to the start of the study to having a choice of foods.
Baseline body weight was measured prior to drug treatment on day 0 of the study. Baseline food consumption was the average of the 3 days prior to the first drug treatment. […] All data were evaluated using ANOVA and Fishers PLSD statistics.

[1] = target: T2, human melanin concentrating hormone receptor (MCHR1) (Homo sapiens, UniProt Q99705, A5T/E4Q); test: Radioligand binding assay for assessment of MCHR1 activity; details: membranes of HEK-293 cells expressing mutated hMCHR1; competition with [125I]-MCH
T2 construct: expressed in transfected cells; host or cells: HEK-293 (stably transfected), membranes
Experimental: Compounds of Formula I were initially characterized in an in vitro binding assay to determine their Ki or ability to antagonize binding of a peptide agonist to the human melanin concentrating hormone receptor (MCHR1).
Membranes from stably transfected HEK-293 cells expressing a mutated (E4Q, AST) hMCHR1 receptor were prepared by dounce homogenization and differential centrifugation. Binding experiments were carried out with 0.5-1.0 ug of membrane protein incubated in a total of 0.2 ml in 25 mM HEPES (pH 7.4) with 10 mM MgCl2, 2 mM EGTA, and 0.1% BSA (Binding Buffer) for 90 min. For competition binding assays, reactions were carried out in the presence of with 0.06-0.1 nM [Phe^n, [^125I]Tyr^19]-MCH and increasing concentrations of unlabeled test molecules. Reactions were terminated by rapid vacuum filtration over 96 well-GFC Unifilter plates pre-coated with 0.075 ml binding buffer containing 1% BSA, and washed 3 times with 0.4 ml of Phospho-buffered Saline (pH 7.4) containing 0.01% TX-100. Filters were dried; 0.05 ml microscint 20 was added to each well and radioactivity was subsequently quantified by scintillation counting on a TopCount™ microplate scintillation counter (Packard). Inhibitory constants were determined by nonlinear least squares analysis using a four parameter logistic equation.

[2] = 30 mg/kg p.o. daily, day 0 through day 4, male Sprague Dawley rats
[3] = 45 mg/kg p.o. daily, male Sprague Dawley rats

T2 sequence (Q99705 whole entry E4Q/A5T): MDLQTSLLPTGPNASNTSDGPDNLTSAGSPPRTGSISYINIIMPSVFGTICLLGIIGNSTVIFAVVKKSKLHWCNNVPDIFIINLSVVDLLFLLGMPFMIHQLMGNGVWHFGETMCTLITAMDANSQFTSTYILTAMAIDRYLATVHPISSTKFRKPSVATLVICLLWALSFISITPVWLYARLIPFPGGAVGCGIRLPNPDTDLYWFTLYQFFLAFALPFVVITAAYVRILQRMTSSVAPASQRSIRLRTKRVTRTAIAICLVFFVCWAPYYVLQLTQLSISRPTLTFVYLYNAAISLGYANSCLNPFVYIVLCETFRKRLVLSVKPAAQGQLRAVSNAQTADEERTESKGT
T1 sequence (P97639 whole entry): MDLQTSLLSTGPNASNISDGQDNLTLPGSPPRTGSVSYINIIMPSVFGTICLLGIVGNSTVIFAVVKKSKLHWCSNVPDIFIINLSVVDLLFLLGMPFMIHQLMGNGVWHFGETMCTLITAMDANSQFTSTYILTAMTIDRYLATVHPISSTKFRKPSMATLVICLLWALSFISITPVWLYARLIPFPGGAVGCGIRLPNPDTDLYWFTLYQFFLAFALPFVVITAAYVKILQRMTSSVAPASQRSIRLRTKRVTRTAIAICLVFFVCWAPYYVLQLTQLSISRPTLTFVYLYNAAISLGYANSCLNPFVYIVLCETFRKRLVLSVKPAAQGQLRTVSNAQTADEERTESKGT

| SMILES | Ki [1] [nM] | further results |
| --- | --- | --- |
| COc1cc(-n2ccnc(Sc3ccc(C(F)(F)F)cc3)c2=O)ccc1OCC(C)OC(=O)[C@@H](N)C(C)C (stereo in doubt) [Example 202, 1-(2-Methoxy-4-(2-oxo-3-(4-(trifluoromethyl)phenylthio)pyrazin-1(2H)-yl)phenoxy)propan-2-yl 2-amino-3-methylbutanoate] |  | Weight Reduction versus Vehicle (MCHR1; [2]): 2.2% |
| COc1ccc(-n2ccnc(SCCc3ccc(Cl)cc3)c2=O)cc1OC [Example 3] | 576 |  |
| COc1ccc(-n2ccnc(Sc3ccc(OC(F)(F)F)cc3)c2=O)cc1OC [Example 10] | 141 |  |
| COc1cc(-n2ccnc(Sc3ccc(C(F)(F)F)cc3)c2=O)ccc1OCC(C)(C)O [Example 36] | 33 |  |
| COc1cc(-n2ccnc(Sc3ccc(OC(F)(F)F)cc3)c2=O)ccc1OCC(C)(C)O [Example 38] | 20 |  |
| COc1cccc(Sc2nccn(-c3ccc(OCC(C)(C)O)c(OC)c3)c2=O)c1 [Example 39] | 1580 |  |
| COc1cc(-n2ccnc(Sc3nc4ccc(Cl)cc4s3)c2=O)ccc1OCC(C)(C)O [Example 59] | 125 |  |
| COc1cc(-n2ccnc(Sc3ccc(OC(F)(F)F)cc3)c2=O)ccc1OCC(O)C1CC1 (stereo not shown) [Example 67] | 28 |  |
| COc1cc(-n2ccnc(Sc3ccc(C(F)(F)F)cc3)c2=O)ccc1O[C@H]1COC[C@H]1O [Example 69] | 49 |  |
| COc1cc(-n2ccnc(Sc3ccc(C(F)(F)F)cc3)c2=O)ccc1OCC(C)O (stereo not shown) [Example 71] | 62 |  |
| Cc1cc(-n2ccnc(Sc3ccc(C(F)(F)F)cn3)c2=O)ccc1OCC(C)(C)O [Example 95, 1-(4-(2-Hydroxy-2-methylpropoxy)-3-methylphenyl)-3-(5-(trifluoromethyl)pyridin-2-ylthio)pyrazin-2(1H)-one] | 41 |  |
| CC(C)(O)COc1ccc(-n2ccnc(OCCc3ccc(F)cc3)c2=O)cc1Cl [Example 141] | 78 |  |
| CC(C)(O)COc1ccc(-n2ccnc(Sc3ccc(C(F)(F)F)cc3)c2=O)cn1 [Example 157] | 1730 |  |
| CC(C)(O)COc1ncc(-n2ccnc(SCCc3ccccn3)c2=O)cc1Cl [Example 169] | 1290 |  |
| Cc1cc(-n2ccnc(Sc3ccc(C(F)(F)F)cc3)c2=O)cnc1OCC(C)(C)O [Example 170] | 132 |  |
| Cc1cc(=O)n(CC(C)(C)O)c2ccc(-n3ccnc(Sc4ccc(OC(F)(F)F)cc4)c3=O)cc12 [Example 178] | 290 |  |
| COc1cc(-n2ccnc(Sc3ccc(C(F)(F)F)cc3)c2=O)ccc1OCC(C)(C)OC(=O)CN [Example 193, 1-(2-Methoxy-4-(2-oxo-3-(4-(trifluoromethyl)phenylthio)pyrazin-1(2H)-yl)phenoxy)-2-methylpropan-2-yl 2-aminoacetate] |  | Weight Reduction versus Vehicle (MCHR1; 3 mg/kg p.o. daily, day 0 through day 4, male Sprague Dawley rats): 0.7%; Weight Reduction versus Vehicle (MCHR1; 10 mg/kg p.o. daily, day 0 through day 4, male Sprague Dawley rats): 2.1%; Weight Reduction versus Vehicle (MCHR1; [2]): 3.4% |

The next lines start with results.

| Ki [1] [nM] | SMILES | further results |
| --- | --- | --- |
| 3130 | COc1cc(-n2ccnc(SCCCc3ccccc3)c2=O)ccc1OC[C@@H](C)O [Example 19] |  |
| 63 | COc1cc(-n2ccnc(SCCc3ccccn3)c2=O)ccc1OCC(C)(C)O [Example 27, 1-(4-(2-Hydroxy-2-methylpropoxy)-3-methoxyphenyl)-3-(2-(pyridin-2-yl)-ethylthio)pyrazin-2(1H)-one] | Weight Reduction versus Vehicle (MCHR1; [3]): 4.1% |
| 3150 | COc1cc(-n2ccnc(SCCc3ccncc3)c2=O)ccc1OCC(C)(C)O [Example 28] |  |
| 3220 | COc1cc(-n2ccnc(Sc3ccccc3C(F)(F)F)c2=O)ccc1OCC(C)(C)O [Example 40] |  |
| 232 | COc1cc(-n2ccnc(SC(C)Cc3ccccc3)c2=O)ccc1OCC(C)(C)O (stereo not shown) [Example 46] |  |
| 3040 | COc1cc(-n2ccnc(Sc3ccccc3)c2=O)ccc1OCC(C)(C)O [Example 49] |  |
| 4660 | COc1cc(-n2ccnc(SCc3ccccc3)c2=O)ccc1OCC(C)(C)O [Example 50] |  |
| 10 | CCc1cc(-n2ccnc(SCCc3ccccc3)c2=O)ccc1OCC(C)(C)O [Example 65] |  |
| 17 | Cc1cc(-n2ccnc(SCCc3ccccn3)c2=O)ccc1OCC(C)(C)O [Example 110, 1-(4-(2-Hydroxy-2-methylpropoxy)-3-methylphenyl)-3-(2-(pyridin-2-yl)ethylthio)pyrazin-2(1H)-one] |  |
| 8 | Cc1cc(-n2ccnc(SCCc3ccccc3)c2=O)ccc1OCC(C)(C)O [Example 113, 1-(4-(2-Hydroxy-2-methylpropoxy)-3-methylphenyl)-3-(phenethylthio)pyrazin-2(1H)-one] | Weight Reduction versus Vehicle (MCHR1; [3]): 4.2% |
| 9 | Cc1cc(-n2ccnc(SCCc3ccc(F)cc3)c2=O)ccc1OCC(C)(C)O [Example 124] |  |
| 17 | CCc1cc(-n2ccnc(SCCc3ccc(F)cc3)c2=O)ccc1OCC(C)(C)O [Example 125] |  |
| 18 | COc1cc(-n2ccnc(SCCc3cccc(F)c3)c2=O)ccc1OCC(C)(C)O [Example 131] |  |
| 64 | CCc1cc(-n2ccnc(OCCc3ccc(Cl)cc3)c2=O)ccc1OCC(C)(C)O [Example 151] |  |
| 45 | Cc1cc(-n2ccnc(OCCc3cccc(Cl)c3)c2=O)ccc1OCC(C)(C)O [Example 155] |  |
| 85 | Cc1cc(-n2ccnc(SCCc3ccccc3)c2=O)cnc1OCC(C)(C)O [Example 172] |  |
